What was measured:
PBP2 = conditions: 2 mM EDTA
PBP2D515N = target: T1, PBP2D515N (Clostridioides difficile, UniProt A0A9R0CDX1, D515N); test: biochemical; assay type: binding
T1 sequence (A0A9R0CDX1 36-962 D515N): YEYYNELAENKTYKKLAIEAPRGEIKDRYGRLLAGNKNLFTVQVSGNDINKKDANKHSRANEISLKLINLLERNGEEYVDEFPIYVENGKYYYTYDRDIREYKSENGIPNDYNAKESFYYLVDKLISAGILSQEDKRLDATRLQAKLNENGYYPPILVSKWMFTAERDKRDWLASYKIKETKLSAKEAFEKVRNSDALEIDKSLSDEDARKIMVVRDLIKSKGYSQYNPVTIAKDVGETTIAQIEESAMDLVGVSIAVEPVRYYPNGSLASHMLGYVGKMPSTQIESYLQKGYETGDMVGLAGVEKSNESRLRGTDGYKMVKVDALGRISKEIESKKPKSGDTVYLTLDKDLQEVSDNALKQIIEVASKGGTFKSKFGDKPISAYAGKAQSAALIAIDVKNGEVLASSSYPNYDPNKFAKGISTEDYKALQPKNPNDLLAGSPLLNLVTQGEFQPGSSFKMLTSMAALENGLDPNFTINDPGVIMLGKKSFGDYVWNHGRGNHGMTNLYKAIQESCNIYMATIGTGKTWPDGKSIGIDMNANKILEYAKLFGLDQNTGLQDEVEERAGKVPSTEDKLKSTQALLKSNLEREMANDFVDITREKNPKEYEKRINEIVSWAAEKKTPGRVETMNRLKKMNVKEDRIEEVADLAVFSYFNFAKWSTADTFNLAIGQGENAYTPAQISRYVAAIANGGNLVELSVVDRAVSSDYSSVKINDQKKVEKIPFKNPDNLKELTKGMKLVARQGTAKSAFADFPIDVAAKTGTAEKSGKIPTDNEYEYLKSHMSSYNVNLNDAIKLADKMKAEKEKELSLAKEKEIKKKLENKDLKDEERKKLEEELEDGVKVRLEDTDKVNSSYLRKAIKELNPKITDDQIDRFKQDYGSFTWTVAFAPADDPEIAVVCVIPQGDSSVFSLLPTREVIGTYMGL

PBP2WT = PBP2WT (Clostridioides difficile, UniProt A0A9R0CDX1); test: biochemical; assay type: binding
C. difficile = tested on: C. difficile; parameters: method as in PMID 29533126; conditions: cited from earlier work

Molecule: O=C(O)CN(CCN(CC(=O)O)CC(=O)O)CC(=O)O [EDTA]
- PBP2 activity (PBP2): not affected

Molecule: Cc1cc(C)n2c1C=C1C=CC(CCC(=O)Nc3ccc(OCC(=O)N[C@@H]4C(=O)N5[C@@H]4SC(C)(C)[C@@H]5C(=O)O)cc3)=[N+]1[B-]2(F)F [bocillin]
- Kd (PBP2D515N): 16.7 ± 2.72 µM
- Kd (PBP2WT): 2.95 ± 0.72 µM

B1: calprotectin: a protein secreted by the immune system in response to intestinal inflammation; chelator of divalent cations such as Ca2+ and Zn2+ (protein, UniProt P05109 1-93; P06702 1-114, looked up)
Protein S100-A8: MLTELEKALNSIIDVYHKYSLIKGNFHAVYRDDLKKLLETECPQYIRKKGADVWFKELDINTDGAVNFQEFLILVIKMGVAAHKKSHEESHKE
Protein S100-A9: MTCKMSQLERNIETIINTFHQYSVKLGHPDTLNQGEFKELVRKDLQNFLKKENKNEKVIEHIMEDLDTNADKQLSFEEFIMLMARLTWASHEKMHEGDEGPGHHHKPGLGEGTP
- C. difficile growth (in words) (C. difficile): inhibits C. difficile growth

From article PMC9334274, “A unique class of Zn^2+-binding serine-based PBPs underlies cephalosporin resistance and sporogenesis in Clostridioides difficile” (Nature Communications, 2022)
